Data on 13 molecules can be found in patent publication US9938261B2, “Heterocyclic compounds and methods of use thereof” (AMBIT BIOSCIENCES CORPORATION, priority 2011, dated 2018).

The pKd is −log10 of the Kd, conventionally taken in molar units. For orientation: pIC50 means the negative decadic logarithm of the IC50, by convention in mol/L.

pIC50, pKd: −log10 of the molar value. Some results are limits rather than exact numbers.

In one experiment the target is T1, KIT (Homo sapiens, UniProt P10721).
T1 construct: made in house
T1 sequence (P10721 26-976): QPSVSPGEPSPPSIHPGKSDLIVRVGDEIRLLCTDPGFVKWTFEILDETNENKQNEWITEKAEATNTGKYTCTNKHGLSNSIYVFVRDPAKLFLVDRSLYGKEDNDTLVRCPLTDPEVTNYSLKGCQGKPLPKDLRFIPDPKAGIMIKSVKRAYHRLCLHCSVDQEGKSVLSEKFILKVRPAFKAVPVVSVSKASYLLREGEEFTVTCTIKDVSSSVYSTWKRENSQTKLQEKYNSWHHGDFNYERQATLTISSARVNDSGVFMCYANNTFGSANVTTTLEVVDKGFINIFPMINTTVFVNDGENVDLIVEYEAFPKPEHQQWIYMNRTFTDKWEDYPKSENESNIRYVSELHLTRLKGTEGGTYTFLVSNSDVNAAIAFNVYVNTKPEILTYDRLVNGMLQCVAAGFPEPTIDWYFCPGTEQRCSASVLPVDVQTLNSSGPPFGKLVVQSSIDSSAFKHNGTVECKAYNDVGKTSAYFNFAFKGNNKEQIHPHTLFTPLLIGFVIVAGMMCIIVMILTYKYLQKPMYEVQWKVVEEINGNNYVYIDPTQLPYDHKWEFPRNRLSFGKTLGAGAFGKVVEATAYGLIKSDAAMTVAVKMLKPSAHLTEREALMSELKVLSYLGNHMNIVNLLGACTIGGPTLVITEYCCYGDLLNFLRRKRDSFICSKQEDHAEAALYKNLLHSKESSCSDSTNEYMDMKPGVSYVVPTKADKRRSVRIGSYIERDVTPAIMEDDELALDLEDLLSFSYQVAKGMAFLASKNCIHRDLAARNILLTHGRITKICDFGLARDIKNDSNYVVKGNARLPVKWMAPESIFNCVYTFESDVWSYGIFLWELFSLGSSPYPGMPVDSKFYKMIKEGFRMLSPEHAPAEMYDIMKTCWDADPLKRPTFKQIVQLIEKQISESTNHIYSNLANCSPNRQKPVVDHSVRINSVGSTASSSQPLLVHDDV
The experiment is described as follows: Competition binding assay, KIT Kd. The settings on record: competition binding. The method in brief: (§1)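 Phage-fused or HEK-293/DNA-tagged kinase + ligand-coated streptavidin beads + compound, 1 h RT with shaking. Wash, elute with free ligand 30 min RT, qPCR of eluted kinase. Kd: 11-point 3-fold series.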

For experiment [1], the target named is kinase panel containing either 386 or 392 distinct kinases. The experiment is described as follows: Kinase selectivity score S10 from competition binding panel. Particulars: 10 μM, panel of 386 or 392 distinct kinases. The method in brief:
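S10 is the number of kinases with percent-of-control under 10, divided by all distinct wild-type kinases tested, from a single 10 μM concentration. Binding measured by qPCR of kinase recovered from ligand-coated beads after 1 h equilibrium at room temperature; kinases were phage fusions or DNA-tagged HEK-293 products.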

Experiment [2] has as its target T2, CSF1R (Homo sapiens, UniProt P07333). The experiment can be described thus: HEK293 CSF1R phosphorylation MSD assay. It is filed as cell-based. Also on record: expressed in transfected cells; host or cells: HEK293. Particulars: HEK293 cells, M-CSF stimulated CSF1R phosphorylation, MSD; read-out: HEK293 pCSF1R M-CSF MSD:IC50. A digest of the protocol: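 Ligand-induced CSF1R autophosphorylation was measured by MSD sandwich assay: CSF1R-FKBP from lysates captured via FK506, anti-phosphotyrosine readout. Cells were exposed to compound for 2 h (9-point, half-log, 0.5% DMSO) before 5 min 50 ng/mL M-CSF. Reported IC50 is the mean of duplicate-plate IC50s relative to DMSO control.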

A further experiment addresses T3, PDGFRβ (Homo sapiens, UniProt P09619).
T3 construct: made in house
The experiment can be described thus: Competition binding assay, PDGFRβ Kd. The settings on record: competition binding. A digest of the protocol: as §1

The target in experiment [3] is T2, CSF1R. The experiment is described as follows: Competition binding assay, CSF1R Kd. Also on record: made in house. Particulars: competition binding. A digest of the protocol: as §1

T3 sequence (P09619 33-1106): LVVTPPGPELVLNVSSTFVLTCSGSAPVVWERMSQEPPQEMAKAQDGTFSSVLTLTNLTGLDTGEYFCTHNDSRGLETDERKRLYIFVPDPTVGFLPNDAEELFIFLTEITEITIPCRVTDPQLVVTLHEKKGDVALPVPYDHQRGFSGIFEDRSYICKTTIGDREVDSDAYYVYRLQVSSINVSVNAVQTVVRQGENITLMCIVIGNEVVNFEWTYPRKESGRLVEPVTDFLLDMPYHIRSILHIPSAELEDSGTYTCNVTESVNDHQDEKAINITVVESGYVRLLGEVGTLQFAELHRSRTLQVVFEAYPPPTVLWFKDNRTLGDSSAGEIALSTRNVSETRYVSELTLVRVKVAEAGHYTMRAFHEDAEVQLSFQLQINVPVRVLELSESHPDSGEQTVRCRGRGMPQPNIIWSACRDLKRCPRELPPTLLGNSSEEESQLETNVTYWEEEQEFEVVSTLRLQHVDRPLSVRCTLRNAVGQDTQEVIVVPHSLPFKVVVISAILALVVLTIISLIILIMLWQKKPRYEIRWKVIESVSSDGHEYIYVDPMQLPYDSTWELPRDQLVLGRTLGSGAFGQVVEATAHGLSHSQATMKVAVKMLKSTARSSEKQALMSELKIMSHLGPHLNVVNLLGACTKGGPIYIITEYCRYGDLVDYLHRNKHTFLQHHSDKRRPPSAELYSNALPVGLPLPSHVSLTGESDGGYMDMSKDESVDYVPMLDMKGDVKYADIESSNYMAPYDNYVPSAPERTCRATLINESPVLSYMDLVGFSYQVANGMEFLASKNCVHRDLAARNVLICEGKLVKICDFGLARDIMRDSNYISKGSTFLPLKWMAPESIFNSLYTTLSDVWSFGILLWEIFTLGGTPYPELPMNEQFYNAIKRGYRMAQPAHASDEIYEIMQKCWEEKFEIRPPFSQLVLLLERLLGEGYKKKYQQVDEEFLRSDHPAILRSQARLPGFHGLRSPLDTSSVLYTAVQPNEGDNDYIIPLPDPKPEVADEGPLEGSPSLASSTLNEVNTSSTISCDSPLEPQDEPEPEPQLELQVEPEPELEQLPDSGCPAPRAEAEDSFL
T2 sequence (P07333 20-972): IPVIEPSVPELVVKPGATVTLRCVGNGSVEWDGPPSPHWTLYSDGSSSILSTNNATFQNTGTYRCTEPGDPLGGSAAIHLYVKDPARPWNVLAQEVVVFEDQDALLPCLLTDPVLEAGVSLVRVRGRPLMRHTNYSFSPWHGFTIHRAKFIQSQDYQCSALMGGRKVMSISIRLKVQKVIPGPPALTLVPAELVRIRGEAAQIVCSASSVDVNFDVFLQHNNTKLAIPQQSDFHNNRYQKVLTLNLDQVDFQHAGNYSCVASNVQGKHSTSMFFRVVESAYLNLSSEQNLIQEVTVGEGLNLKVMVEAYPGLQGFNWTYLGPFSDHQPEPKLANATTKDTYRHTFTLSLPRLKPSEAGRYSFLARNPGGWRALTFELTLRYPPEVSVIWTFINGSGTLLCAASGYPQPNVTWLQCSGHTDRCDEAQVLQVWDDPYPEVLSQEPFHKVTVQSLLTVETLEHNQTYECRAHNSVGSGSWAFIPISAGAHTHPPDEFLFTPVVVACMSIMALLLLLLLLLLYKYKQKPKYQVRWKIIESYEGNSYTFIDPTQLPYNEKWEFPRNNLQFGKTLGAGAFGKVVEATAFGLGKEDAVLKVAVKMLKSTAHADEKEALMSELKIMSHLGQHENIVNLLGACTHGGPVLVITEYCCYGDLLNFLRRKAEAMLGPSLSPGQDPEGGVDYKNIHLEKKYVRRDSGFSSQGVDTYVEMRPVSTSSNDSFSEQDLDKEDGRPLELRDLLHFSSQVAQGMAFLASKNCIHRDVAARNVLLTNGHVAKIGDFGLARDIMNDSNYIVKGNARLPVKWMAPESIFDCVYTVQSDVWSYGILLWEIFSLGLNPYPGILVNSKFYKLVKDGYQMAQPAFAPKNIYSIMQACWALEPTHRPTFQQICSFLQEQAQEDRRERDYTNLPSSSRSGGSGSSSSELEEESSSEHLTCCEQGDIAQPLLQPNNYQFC

Turning to `C=Cc1ccc2c(c1)ncn2Cc1ccc2nc(N[C@@H]3CCCC[C@H]3O)sc2c1` [Example 183, (1R,2R)-2-((6-((5-vinyl-1H-benzo[d]imidazol-1-yl)methyl)benzo[d]thiazol-2-yl)amino)cyclohexanol], the values for the pKd at KIT, on PDGFRβ and on CSF1R [3] were at least 7.00, 6.30 to 7.30 and at least 8.30, respectively. Further, the “Kinase specificity S(10)” value in experiment [1] is “B (0.01<B≤0.02)”. The pIC50 on CSF1R [2] is at least 7.30.
As for `O[C@@H]1CCCC[C@H]1Nc1nc2ccc(Cn3cnc4cc(C5=CCCCC5)ccc43)cc2s1` [Example 184, (1R,2R)-2-((6-((5-(cyclohex-1-en-1-yl)-1H-benzo[d]imidazol-1-yl)methyl)benzo[d]thiazol-2-yl)amino)cyclohexanol], the pKd on KIT was at least 7.00; on PDGFRβ, 6.30 to 7.30; on CSF1R [3] it was 7.70 to 8.30. For the same molecule, in experiment [1], the “Kinase specificity S(10)” value is on record as “A (A≤0.01)”. Further, the pIC50 at CSF1R [2] was 6.30 to 6.70.
For `Cn1cc(-c2ccc3c(c2)ncn3Cc2ccc3nc(N[C@@H]4CCCC[C@H]4O)sc3c2)c(C(F)(F)F)n1` [Example 185, (1R,2R)-2-((6-((5-(1-methyl-3-(trifluoromethyl)-1H-pyrazol-4-yl)-1H-benzo[d]imidazol-1-yl)methyl)benzo[d]thiazol-2-yl)amino)cyclohexanol] the same measures were at least 7.00, at least 7.30, 7.70 to 8.30, “B (0.01<B≤0.02)” and 6.70 to 7.30.
For `O[C@@H]1CCCC[C@H]1Nc1nc2ccc(Cc3cnc4cccc(F)n34)cc2s1` [Example 186, (1R,2R)-2-((6-((5-fluoroimidazo[1,2-a]pyridin-3-yl)methyl)benzo[d]thiazol-2-yl)amino)cyclohexanol] the same measures were 6.30 to 7.00, 6.30 to 7.30, 7.70 to 8.30, “B (0.01<B≤0.02)” and 6.30 to 6.70.
Take `O[C@@H]1CCCC[C@H]1Nc1nc2ccc(Cc3cnc4cc(N5CCOCC5)ccn34)cc2s1` [Example 187, (1R,2R)-2-((6-((7-morpholinoimidazo[1,2-a]pyridin-3-yl)methyl)benzo[d]thiazol-2-yl)amino)cyclohexanol]: the pKd was below 5.70 at KIT, 5.70 to 6.30 on PDGFRβ and 7.70 to 8.30 on CSF1R [3]. Also, the “Kinase specificity S(10)” value in experiment [1] was “A (A≤0.01)”. Moreover, the pIC50 on CSF1R [2] was 6.70 to 7.30.
`CN1CCN(c2ccn3c(Cc4ccc5nc(N[C@@H]6CCCC[C@H]6O)sc5c4)cnc3c2)CC1` [Example 188, (1R,2R)-2-((6-((7-(4-methylpiperazin-1-yl)imidazo[1,2-a]pyridin-3-yl)methyl)benzo[d]thiazol-2-yl)amino)cyclohexanol]: the pKd on KIT was below 5.70; on PDGFRβ, 5.70 to 6.30; on CSF1R [3], 7.70 to 8.30. The “Kinase specificity S(10)” value in experiment [1] is recorded as “A (A≤0.01)”. Moreover, on CSF1R [2], the pIC50 is 6.70 to 7.30.
For `Cc1cc(C)c2c(c1)ncn2Cc1ccc2nc(N[C@@H]3CCCC[C@H]3O)sc2c1` [Example 189] the same measures were 5.70 to 6.30, 5.70 to 6.30, 7.70 to 8.30, “A (A≤0.01)” and 6.30 to 6.70.
Consider `Cc1cc(Br)cc2ncn(Cc3ccc4nc(N[C@@H]5CCCC[C@H]5O)sc4c3)c12` [Example 190, (1R,2R)-2-((6-((5-bromo-7-methyl-1H-benzo[d]imidazol-1-yl)methyl)benzo[d]thiazol-2-yl)amino)cyclohexanol], for which the negative logarithm of the Kd (pKd) on KIT is 5.70 to 6.30; at PDGFRβ, 5.70 to 6.30; at CSF1R [3], 7.30 to 7.70. Besides, the “Kinase specificity S(10)” value in experiment [1] is recorded as “A (A≤0.01)”. Moreover, the pIC50 at CSF1R [2] is below 6.30.
As to `Fc1cnc2c(c1)ncn2Cc1ccc2nc(Nc3ccccc3)sc2c1` [Example 191, 6-((6-fluoro-3H-imidazo[4,5-b]pyridin-3-yl)methyl)-N-phenylbenzo[d]thiazol-2-amine], the pKd on KIT was 6.30 to 7.00; at PDGFRβ it was 5.70 to 6.30; on CSF1R [3] it was 7.30 to 7.70. For the same molecule, in experiment [1], the “Kinase specificity S(10)” value is reported as “A (A≤0.01)”. The pIC50 on CSF1R [2] was below 6.30.
For `OC[C@@H]1CCC[C@@H](Nc2nc3ccc(Cn4cnc5cc(F)cnc54)cc3s2)C1` [Example 192, ((1R,3R)-3-((6-((6-fluoro-3H-imidazo[4,5-b]pyridin-3-yl)methyl)benzo[d]thiazol-2-yl)amino)cyclohexyl)methanol] the same measures were 6.30 to 7.00, at least 7.30, 7.70 to 8.30, “B (0.01<B≤0.02)” and 6.30 to 6.70.
Regarding `O[C@@H]1[C@H](O)CCC[C@H]1Nc1nc2ccc(Cn3cnc4cc(F)cnc43)cc2s1` [Example 193, (1R,2S,3R)-3-((6-((6-fluoro-3H-imidazo[4,5-b]pyridin-3-yl)methyl)benzo[d]thiazol-2-yl)amino)cyclohexane-1,2-diol], the pKd was at least 7.00 on KIT, at least 7.30 on PDGFRβ and 7.70 to 8.30 at CSF1R [3]. Also, the “Kinase specificity S(10)” value in experiment [1] is given as “A (A≤0.01)”. Also, the pIC50 at CSF1R [2] is at least 7.30.
On to `OC[C@H]1CCC[C@@H](Nc2nc3ccc(Cn4cnc5cc(F)cnc54)cc3s2)C1` [Example 194, ((1S,3R)-3-((6-((6-fluoro-3H-imidazo[4,5-b]pyridin-3-yl)methyl)benzo[d]thiazol-2-yl)amino)cyclohexyl)methanol], for which the pKd at KIT was at least 7.00; at PDGFRβ it was at least 7.30; at CSF1R [3] it was 7.70 to 8.30. For the same molecule, the “Kinase specificity S(10)” value in experiment [1] is “B (0.01<B≤0.02)”. In addition, the negative-log IC50 (pIC50) at CSF1R [2] was 6.70 to 7.30.
Take `N#Cc1cc2ncn(Cc3ccc4nc(N[C@@H]5CCCC[C@H]5O)oc4c3)c2cc1Cl` [Example 195, 6-chloro-1-((2-(((1R,2R)-2-hydroxycyclohexyl)amino)benzo[d]oxazol-6-yl)methyl)-1H-benzo[d]imidazole-5-carbonitrile]: the negative-log Kd (pKd) at KIT is 5.70 to 6.30; at PDGFRβ, 5.70 to 6.30; on CSF1R [3], 7.30 to 7.70. In addition, the “Kinase specificity S(10)” value in experiment [1] is “A (A≤0.01)”. The negative logarithm of the IC50 (pIC50) on CSF1R [2] is 6.30 to 6.70.
